Patent publication US7528138B2, “Pyrazolo[1,5-a]pyrimidines useful as inhibitors of protein kinases” (Vertex Pharmaceuticals Incorporated, priority 2004, dated 2009)
pKi: −log10 of the molar value.

Key:
[1] = molecular target: T1, Itk (Homo sapiens, UniProt Q08881); assay: ITK Inhibition Assay (Radiometric), radioactive-phosphate incorporation; format: biochemical; conditions: enzyme inhibition data (Ki), Table 11; radiometric or UV assay not stated
T1 sequence (Q08881 1-620): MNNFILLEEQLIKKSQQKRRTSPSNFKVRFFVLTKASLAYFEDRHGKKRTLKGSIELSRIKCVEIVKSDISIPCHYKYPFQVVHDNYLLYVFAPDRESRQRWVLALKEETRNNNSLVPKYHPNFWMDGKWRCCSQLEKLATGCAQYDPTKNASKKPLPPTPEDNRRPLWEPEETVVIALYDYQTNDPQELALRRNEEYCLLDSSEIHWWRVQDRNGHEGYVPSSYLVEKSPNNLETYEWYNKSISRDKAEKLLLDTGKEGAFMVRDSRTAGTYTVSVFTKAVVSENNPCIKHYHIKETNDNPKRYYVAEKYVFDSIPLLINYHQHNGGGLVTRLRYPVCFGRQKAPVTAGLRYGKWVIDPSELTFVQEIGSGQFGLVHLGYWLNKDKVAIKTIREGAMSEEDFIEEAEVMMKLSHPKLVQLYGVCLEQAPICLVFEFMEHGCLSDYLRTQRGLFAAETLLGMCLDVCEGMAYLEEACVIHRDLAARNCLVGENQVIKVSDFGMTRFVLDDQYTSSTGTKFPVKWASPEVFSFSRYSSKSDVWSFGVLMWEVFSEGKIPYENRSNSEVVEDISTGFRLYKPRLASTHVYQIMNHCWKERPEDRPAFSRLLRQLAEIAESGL
Procedure, shortened: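 Radiometric 33P incorporation into SAM68 peptide (D332-443) with filter capture and scintillation counting; 10 min pre-incubation then 10 min reaction at 25° C. IC50 format: 30 nM Itk, 15 μM ATP, 2 μM peptide, HEPES pH 7.5. Ki(app) format: 50 nM Itk, 7.5 μM ATP, 3 μM peptide, MOPS pH 7.0.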

[2] = molecular target: c-Met (Homo sapiens, UniProt P08581); assay: c-Met Inhibition Assay, coupled enzyme system; format: biochemical; conditions: enzyme inhibition data (Ki), Table 11
Chain of c-Met (P08581 25-1390): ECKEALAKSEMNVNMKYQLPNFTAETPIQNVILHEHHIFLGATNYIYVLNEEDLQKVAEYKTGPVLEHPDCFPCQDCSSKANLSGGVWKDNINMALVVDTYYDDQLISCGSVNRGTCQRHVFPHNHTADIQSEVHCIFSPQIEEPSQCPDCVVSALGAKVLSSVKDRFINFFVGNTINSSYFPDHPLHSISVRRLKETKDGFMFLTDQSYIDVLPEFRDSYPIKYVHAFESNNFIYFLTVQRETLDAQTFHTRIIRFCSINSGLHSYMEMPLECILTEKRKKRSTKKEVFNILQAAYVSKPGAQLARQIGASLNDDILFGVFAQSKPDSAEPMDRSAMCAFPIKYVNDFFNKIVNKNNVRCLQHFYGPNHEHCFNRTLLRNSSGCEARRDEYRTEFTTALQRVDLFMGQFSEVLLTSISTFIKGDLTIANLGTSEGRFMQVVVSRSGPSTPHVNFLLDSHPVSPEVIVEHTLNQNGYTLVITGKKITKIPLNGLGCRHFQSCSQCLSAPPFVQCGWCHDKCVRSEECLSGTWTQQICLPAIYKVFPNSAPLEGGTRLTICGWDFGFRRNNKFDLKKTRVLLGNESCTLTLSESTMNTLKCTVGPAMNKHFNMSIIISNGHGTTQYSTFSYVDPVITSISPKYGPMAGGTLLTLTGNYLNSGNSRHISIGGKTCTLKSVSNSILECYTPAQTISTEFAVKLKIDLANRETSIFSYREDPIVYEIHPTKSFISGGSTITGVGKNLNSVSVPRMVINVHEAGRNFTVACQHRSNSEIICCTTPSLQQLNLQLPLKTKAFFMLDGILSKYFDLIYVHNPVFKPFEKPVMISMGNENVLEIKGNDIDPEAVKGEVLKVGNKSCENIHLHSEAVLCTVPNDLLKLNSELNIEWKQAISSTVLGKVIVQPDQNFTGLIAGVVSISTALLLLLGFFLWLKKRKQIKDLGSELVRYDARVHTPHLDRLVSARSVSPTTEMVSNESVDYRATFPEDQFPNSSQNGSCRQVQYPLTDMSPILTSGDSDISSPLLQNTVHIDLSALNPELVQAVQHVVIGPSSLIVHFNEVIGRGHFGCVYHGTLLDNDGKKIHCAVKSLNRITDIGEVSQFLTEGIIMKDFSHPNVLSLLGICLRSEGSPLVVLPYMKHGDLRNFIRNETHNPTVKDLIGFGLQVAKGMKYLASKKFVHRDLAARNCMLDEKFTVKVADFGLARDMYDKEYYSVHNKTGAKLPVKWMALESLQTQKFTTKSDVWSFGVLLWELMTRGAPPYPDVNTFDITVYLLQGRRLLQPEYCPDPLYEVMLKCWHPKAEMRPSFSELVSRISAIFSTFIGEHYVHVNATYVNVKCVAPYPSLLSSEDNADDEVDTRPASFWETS
Procedure, shortened: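 Pyruvate kinase/lactate dehydrogenase-coupled NADH assay in HEPES pH 7.5 with 80 nM c-Met, 200 μM ATP and 10 μM polyGluTyr at 30° C. Compound (0.006–12.5 μM final, 12-point) preincubated 10 min before ATP start; rates over 10 min gave Ki.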

Nc1nn2cc(-c3ccc(CN4CC[C@@H](N)C4)cc3)cnc2c1-c1ccccn1 [Compound V-231]
pKi [1]: > 6.30 | pKi [2]: > 6.30

Nc1nn2cc(-c3ccc(CN4CC[C@H](N)C4)cc3)cnc2c1-c1ccccn1 [Compound V-233]
pKi [1]: > 6.30 | pKi [2]: > 6.30

NCc1ccc(-c2cnc3c(-c4ccccn4)c(N)nn3c2)cc1 [Compound V-195]
pKi [1]: > 6.30 | pKi [2]: > 6.30

Nc1nn2cc(-c3ccc(N4CCC[C@H]4CN4CCCC4)nc3)cnc2c1-c1ccccn1 [Compound V-152]
pKi [1]: > 6.30 | pKi [2]: > 6.30

CCN(CC)CCN(C)c1ccc(-c2cnc3c(-c4ccccn4)c(N)nn3c2)cn1 [Compound V-173]
pKi [1]: > 6.30 | pKi [2]: > 6.30

COCCCN1CCN(C(=O)c2ccc(-c3cnc4c(-c5ccccn5)c(N)nn4c3)nc2)CC1 [Compound V-129]
pKi [1]: > 6.30 | pKi [2]: > 6.30

NC1NN2C=C(c3cccc(CN4CCCNCC4)c3)C=NC2=C1c1ccccn1 (centres unmarked) [Compound V-228]
pKi [1]: > 6.30 | pKi [2]: > 6.30

NC1CCN(Cc2cccc(C3=CN4NC(N)C(c5ccccn5)=C4N=C3)c2)CC1 (centres unmarked) [Compound V-229]
pKi [1]: > 6.30 | pKi [2]: > 6.30

Nc1nn2cc(-c3ccc(N4CCC(N)CC4)nc3)cnc2c1-c1ccccn1 [Compound V-165]
pKi [1]: > 6.30 | pKi [2]: > 6.30

CCCN(CC)c1cc(-c2c(N)nn3cc(-c4ccncc4)cnc23)ncn1 [Compound V-244]
pKi [1]: > 6.30 | pKi [2]: > 6.30

Nc1nn2cc(-c3cccc(C(=O)N4CCCC4CO)n3)cnc2c1-c1ccccn1 (centres unmarked) [Compound V-112]
pKi [1]: 5.30 to 6.30 | pKi [2]: > 6.30

CCN(CC)C(=O)c1ccc(-c2cnc3c(-c4ccccn4)c(N)nn3c2)nc1 [Compound V-98]
pKi [1]: > 6.30 | pKi [2]: > 6.30

CN(CCC#N)C(=O)c1cccc(-c2cnc3c(-c4ccccn4)c(N)nn3c2)n1 [Compound V-114]
pKi [1]: 5.30 to 6.30 | pKi [2]: > 6.30

CN(CCCN)C(=O)c1cccc(-c2cnc3c(-c4ccccn4)c(N)nn3c2)n1 [Compound V-155]
pKi [1]: > 6.30 | pKi [2]: > 6.30

NC1NN2C=C(c3cccc(CN4CC[C@H](N)C4)c3)C=NC2=C1c1ccccn1 (some centres unmarked) [Compound V-227]
pKi [1]: > 6.30 | pKi [2]: > 6.30

CN1CCC(N(C)C(=O)c2cccc(-c3cnc4c(-c5ccccn5)c(N)nn4c3)n2)CC1 [Compound V-101]
pKi [1]: 5.30 to 6.30 | pKi [2]: > 6.30

COc1ccccc1-c1cnc2c(-c3ccccn3)c(N)nn2c1 [Compound V-14]
pKi [1]: 5.30 to 6.30 | pKi [2]: 5.30 to 6.30

Cc1ccnc(-c2c(N)nn3cc(-c4ccncc4)cnc23)c1 [Compound V-133]
pKi [1]: 5.30 to 6.30 | pKi [2]: > 6.30

Nc1nn2cc(-c3ccncc3)cnc2c1-c1cc(N2CCCCC2)ncn1 [Compound V-179]
pKi [1]: > 6.30 | pKi [2]: > 6.30
